How the values were obtained:
[1] = target: T1, GFP-Inka1:Flag-PAK4cat crystal (Homo sapiens, UniProt O96013); test: Live cell imaging of GFP-Inka1:PAK4cat crystal growth; format: cell-based; settings: 5 μM, FIG. 6d
T1 construct: the kinase catalytic domain of human PAK4 (278-591); expressed in transfected cells
Protocol: The cells were plated at 50% confluence glass cover slips overnight: plasmid transfection used GFP-iBox-Pak4cat and FLAG-iBox-Pak4cat constructs at a ratio of 4:1 to promote crystal nucleation. The cover slips were transferred to a Chamlide magnetic chamber (Live cell instruments, Seoul, Korea) with 5% CO2 at 37° C. for live imaging on an Zeiss Axiovert 200M Live Cell Imaging with a 10× objective. We imaged multiple chosen regions for 8 hours at 6 min intervals. To measure crystal growth rate, we used instead a Nikon Eclipse Ti microscope equipped with spinning disk confocal attachment (Yokogawa CSU-22 module) to avoid photo-damage. The cells were imaged at 60×1.4 NA objective at 2 min intervals. For SIM and confocal imaging, cells were fixed in non-hardening mounting media (Vectashield). The slides were imaged by Delta vision OMX SIM with a 100×1.4 NA objective. Confocal imaging used an Olympus FV1000 upright system with 60×1.42NA objective. The 3D stacks were analyzed by IMARIS software.

PAK4cat = target: T2, PAK4cat (Homo sapiens, UniProt O96013); test: In vitro kinase assay, phosphorylation of GST-Raf13 by PAK4cat; format: biochemical; settings: FIG. 1c
T2 construct: PAK1 (1-545) and PAK4 (286-591), respectively; 6His (N); made in house; host or cells: Escherichia coli BL21-CodonPlus(DE3)
Protocol: (§1) Purified PAK1 or PAK4 (50 nM in 25-50 μl) were incubated with 10 μM GST-Raf1S338 peptide in 10 μM ATP (2 μCi of γ32P ATP) of kinase buffer (25 mM Hepes, pH 7.3, 0.1% Triton-X100, 50 mM KCl, 10 mM MgCl2, 1 mM DTT) at 30° C. for 20 min. Samples were analysed by SDS-polyacrylamide gel electrophoresis, or adsorption of the GST substrate mix onto PVDF membranes, followed by extensive washing to remove free γ32P-ATP. The synthetic peptides of 95% purity, as determined by HPLC and MS analyses (GenScript), were soluble in aqueous PBS. Stock solutions (10 mM) were quantified via calculated extinction coefficients and absorbance measurements at 280 nm and stored at −80° C. The diluted peptides were incubated at the indicated concentrations with the kinase on ice (10 min) before addition of γ32P ATP and subsequent incubation at 30° C. The synthetic peptide array (Jerini Biotools) was phosphorylated in situ as described previously.

PAK1 = PAK1 (Homo sapiens, UniProt Q13153); test: In vitro kinase assay, phosphorylation of GST-Raf13 by 6His-PAK1 (activated); format: biochemical; settings: FIG. 1c
Protocol: as §1

T1 sequence (O96013 278-591): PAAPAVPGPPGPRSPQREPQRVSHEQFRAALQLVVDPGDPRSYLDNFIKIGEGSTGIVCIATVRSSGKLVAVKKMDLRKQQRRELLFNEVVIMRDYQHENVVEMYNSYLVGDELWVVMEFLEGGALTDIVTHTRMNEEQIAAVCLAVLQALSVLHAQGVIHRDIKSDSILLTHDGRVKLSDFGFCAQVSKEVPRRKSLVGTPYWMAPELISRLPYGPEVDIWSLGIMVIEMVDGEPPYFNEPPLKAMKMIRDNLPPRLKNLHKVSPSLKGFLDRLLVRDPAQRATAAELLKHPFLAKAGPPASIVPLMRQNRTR
T2 sequence (O96013 286-591): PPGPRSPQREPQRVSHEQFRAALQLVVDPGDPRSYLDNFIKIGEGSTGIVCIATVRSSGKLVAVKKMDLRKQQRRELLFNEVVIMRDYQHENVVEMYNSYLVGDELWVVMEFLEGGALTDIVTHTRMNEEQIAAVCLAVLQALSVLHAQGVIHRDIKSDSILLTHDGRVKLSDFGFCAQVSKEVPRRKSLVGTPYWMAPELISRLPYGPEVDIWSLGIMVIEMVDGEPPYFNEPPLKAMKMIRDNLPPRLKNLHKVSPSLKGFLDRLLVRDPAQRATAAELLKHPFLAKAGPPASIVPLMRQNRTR
PAK1, sequence (Q13153 whole entry): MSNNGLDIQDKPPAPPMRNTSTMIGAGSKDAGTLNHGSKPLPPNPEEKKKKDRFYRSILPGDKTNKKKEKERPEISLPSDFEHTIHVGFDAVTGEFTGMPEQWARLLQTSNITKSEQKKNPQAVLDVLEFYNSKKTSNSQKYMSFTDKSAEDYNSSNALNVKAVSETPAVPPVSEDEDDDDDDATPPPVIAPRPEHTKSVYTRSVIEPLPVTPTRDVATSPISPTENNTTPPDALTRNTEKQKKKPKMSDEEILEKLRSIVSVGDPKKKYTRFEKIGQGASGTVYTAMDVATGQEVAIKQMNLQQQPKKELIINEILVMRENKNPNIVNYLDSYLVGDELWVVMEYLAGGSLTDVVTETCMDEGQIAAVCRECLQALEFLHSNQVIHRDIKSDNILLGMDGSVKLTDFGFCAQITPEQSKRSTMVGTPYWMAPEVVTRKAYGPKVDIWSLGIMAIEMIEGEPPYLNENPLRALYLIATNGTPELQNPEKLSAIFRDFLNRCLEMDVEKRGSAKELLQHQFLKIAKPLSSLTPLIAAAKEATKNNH

Row | GFP signal of co-crystals during the elongation phase ([1]; GFP-Inka1:HA-PAK4cat co-crystals) | crystal growth after drug addition ([1]; growing GFP-Inka1:Flag-PAK4cat crystal) | PAK4cat inhibition in vitro (PAK4cat) | effect on PAK1 (PAK1) | Molecule
1 | depleted of GFP signal | slowed | – | – | Cc1nc(Nc2[nH]nc3c2CN(C(=O)N[C@H](CN(C)C)c2ccccc2)C3(C)C)c2sccc2n1 [PF-03758309]
2 | – | – | potent | does not affect | GST-iBox: recombinant 38 amino acid 'Inka box' (Inka1 residues 166-203) as GST fusion
